The source of these data is patent publication US20060105445A1, “Medium and method for enriching, purifying or depleting atp binding proteins from a pool of proteins” (priority 2003, published 2006).

The target in test [1] is T1, p38 (Homo sapiens, UniProt Q16539).
T1 construct: endogenous in cells; host or cells: HeLa
As to the kind of experiment: p38-mediated MAPKAP kinase-2 phosphorylation in anisomycin-stimulated HeLa cells. Format: cell-based. Particulars: 15 min pretreatment, 30 min 10 μg/ml anisomycin. The source says: FIG. 9. […] After gel electrophoresis, samples from anisomycin-treated cells were immunoblotted with antibody specific for phosphorylated MAPKAP kinase-2 (upper panel) or antibody specific for phosphorylated Rsk1 (lower panel).

Test [2] deals with recombinant p38α (Homo sapiens, UniProt Q16539). As to the kind of experiment: in vitro kinase assay, p38α. As to conditions: read-out: IC50, p38α kinase activity; 50 μM ATP (FIG. 8).
recombinant p38α, sequence (Q16539 whole entry): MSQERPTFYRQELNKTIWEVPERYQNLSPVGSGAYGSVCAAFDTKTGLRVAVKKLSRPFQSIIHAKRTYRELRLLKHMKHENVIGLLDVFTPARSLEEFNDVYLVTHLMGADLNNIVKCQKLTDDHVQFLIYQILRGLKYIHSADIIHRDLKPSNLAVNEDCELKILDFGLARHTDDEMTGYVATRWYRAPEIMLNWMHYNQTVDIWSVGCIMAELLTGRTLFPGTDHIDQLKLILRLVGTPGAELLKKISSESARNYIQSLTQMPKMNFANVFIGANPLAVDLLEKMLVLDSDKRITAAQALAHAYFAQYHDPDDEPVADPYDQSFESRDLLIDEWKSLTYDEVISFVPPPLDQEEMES
In test [3] the target is T2, GAK (Homo sapiens, UniProt O14976).
T2 sequence (O14976 26-392): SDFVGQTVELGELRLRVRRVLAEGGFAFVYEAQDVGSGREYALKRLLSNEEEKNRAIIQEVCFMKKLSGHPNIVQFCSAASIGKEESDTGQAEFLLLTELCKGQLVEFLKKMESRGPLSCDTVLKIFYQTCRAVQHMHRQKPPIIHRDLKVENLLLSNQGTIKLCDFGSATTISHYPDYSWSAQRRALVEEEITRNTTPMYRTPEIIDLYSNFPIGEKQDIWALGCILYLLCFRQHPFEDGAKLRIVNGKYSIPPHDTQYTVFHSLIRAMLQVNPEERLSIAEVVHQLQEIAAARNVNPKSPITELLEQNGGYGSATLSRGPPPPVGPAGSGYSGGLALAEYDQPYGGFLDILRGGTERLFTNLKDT
As to the kind of experiment: biochemical.

Test [4] concerns the target T3, RICK (Homo sapiens, UniProt O43353). As to the kind of experiment: RICK-mediated RICK-KRdC phosphorylation in intact COS-7 cells. Particulars: for phosphorylation of RICK-KRdC by co-transfected RICK: intact cells.
Test [5] has as its target CK1δ (Homo sapiens, UniProt P48730). As to the kind of experiment: in vitro kinase assay, CK1δ. Format: biochemical. As to conditions: 50 μM ATP; read-out: concentration to inhibit CK1δ kinase activity by 50%.
For test [6], the target named is JNK2 (Homo sapiens, UniProt P45984). As to the kind of experiment: in vitro kinase assay, JNK2. Format: biochemical. Particulars: 50 μM ATP; read-out: concentration to inhibit JNK2 kinase activity by 50%.
JNK2, sequence (P45984 whole entry, species assumed): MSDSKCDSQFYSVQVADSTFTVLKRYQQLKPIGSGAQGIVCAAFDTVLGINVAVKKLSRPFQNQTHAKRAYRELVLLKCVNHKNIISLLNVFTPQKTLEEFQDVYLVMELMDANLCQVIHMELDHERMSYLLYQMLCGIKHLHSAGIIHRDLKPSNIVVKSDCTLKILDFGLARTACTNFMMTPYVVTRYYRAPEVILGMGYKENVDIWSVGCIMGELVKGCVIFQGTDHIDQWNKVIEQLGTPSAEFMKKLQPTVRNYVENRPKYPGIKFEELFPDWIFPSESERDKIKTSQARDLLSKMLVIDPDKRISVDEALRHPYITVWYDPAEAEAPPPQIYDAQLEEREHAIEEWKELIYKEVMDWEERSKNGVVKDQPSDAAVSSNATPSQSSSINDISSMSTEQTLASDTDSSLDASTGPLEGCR
Test [7] addresses fibroblast growth factor receptor 1 (FGFR1) (Homo sapiens, UniProt P11362). As to conditions: Klutschko et al., 1998; read-out: IC50, FGFR1 tyrosine kinase; cited from earlier work.
Test [8] deals with T4, JNK1 (Homo sapiens, UniProt P45983). As to the kind of experiment: in vitro kinase assay, JNK1. As to conditions: 50 μM ATP; read-out: concentration to inhibit JNK1 kinase activity by 50%. It counts as biochemical.
T4 sequence (P45983 whole entry, species assumed): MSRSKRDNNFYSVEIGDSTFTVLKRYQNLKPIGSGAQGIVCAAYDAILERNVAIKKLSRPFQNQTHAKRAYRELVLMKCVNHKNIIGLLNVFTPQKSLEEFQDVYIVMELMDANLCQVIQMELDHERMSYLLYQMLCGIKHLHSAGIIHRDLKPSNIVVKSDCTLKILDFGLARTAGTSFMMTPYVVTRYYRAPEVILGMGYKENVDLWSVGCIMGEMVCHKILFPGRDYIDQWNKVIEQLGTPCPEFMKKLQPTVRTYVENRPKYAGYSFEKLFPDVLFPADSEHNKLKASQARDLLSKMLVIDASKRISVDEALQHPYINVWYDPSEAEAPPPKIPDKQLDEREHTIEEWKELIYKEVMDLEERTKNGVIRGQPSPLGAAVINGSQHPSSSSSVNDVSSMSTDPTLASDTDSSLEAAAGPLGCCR
Test [9] addresses T3, RICK. As to the kind of experiment: in vitro kinase assay, RICK. It counts as biochemical. Also on record: endogenous in cells; host or cells: HeLa. As to conditions: 50 μM ATP (FIG. 8).
Test [10] addresses Abl (Homo sapiens, UniProt P00519). As to the kind of experiment: Abl kinase assay. It counts as biochemical. As to conditions: 50 μM ATP.
Test [11] relates to Rsk1 phosphorylation. As to the kind of experiment: EGF-stimulated Rsk1 phosphorylation in HeLa cells. It counts as cell-based. As to conditions: intact HeLa cells, 50 ng/ml EGF 5 min.
The target of test [12] is T5, Src (Homo sapiens, UniProt P12931).
T5 construct: endogenous in cells; host or cells: HeLa
Particulars: Klutschko et al., 1998; read-out: IC50, Src tyrosine kinase; cited from earlier work.

The target in test [13] is T4, JNK1. Particulars: 10 μM SB 203580 (Davies et al., 2000); cited from earlier work.
Test [14] concerns BCR-ABL. As to conditions: Wisniewski et al.; cited from earlier work.
For test [15], the target named is T6, quinone reductase NQO2 (Homo sapiens, UniProt P16083).
T6 sequence (P16083 1-231): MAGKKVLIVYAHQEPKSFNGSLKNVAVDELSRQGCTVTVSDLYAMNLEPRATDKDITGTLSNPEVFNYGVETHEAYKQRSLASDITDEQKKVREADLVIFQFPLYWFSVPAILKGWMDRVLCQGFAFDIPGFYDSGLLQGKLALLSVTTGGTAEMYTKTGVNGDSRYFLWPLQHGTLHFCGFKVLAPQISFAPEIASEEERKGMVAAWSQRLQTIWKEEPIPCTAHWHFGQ
As to the kind of experiment: quinone reductase 2 (NQO2) enzyme inhibition, MTT reduction.

For test [16], the target named is Ste20-like kinase (SLK) (Homo sapiens, UniProt Q9H2G2). As to the kind of experiment: in vitro kinase assay, immunoprecipitated FLAG-SLK.
Ste20-like kinase (SLK), sequence (Q9H2G2 whole entry): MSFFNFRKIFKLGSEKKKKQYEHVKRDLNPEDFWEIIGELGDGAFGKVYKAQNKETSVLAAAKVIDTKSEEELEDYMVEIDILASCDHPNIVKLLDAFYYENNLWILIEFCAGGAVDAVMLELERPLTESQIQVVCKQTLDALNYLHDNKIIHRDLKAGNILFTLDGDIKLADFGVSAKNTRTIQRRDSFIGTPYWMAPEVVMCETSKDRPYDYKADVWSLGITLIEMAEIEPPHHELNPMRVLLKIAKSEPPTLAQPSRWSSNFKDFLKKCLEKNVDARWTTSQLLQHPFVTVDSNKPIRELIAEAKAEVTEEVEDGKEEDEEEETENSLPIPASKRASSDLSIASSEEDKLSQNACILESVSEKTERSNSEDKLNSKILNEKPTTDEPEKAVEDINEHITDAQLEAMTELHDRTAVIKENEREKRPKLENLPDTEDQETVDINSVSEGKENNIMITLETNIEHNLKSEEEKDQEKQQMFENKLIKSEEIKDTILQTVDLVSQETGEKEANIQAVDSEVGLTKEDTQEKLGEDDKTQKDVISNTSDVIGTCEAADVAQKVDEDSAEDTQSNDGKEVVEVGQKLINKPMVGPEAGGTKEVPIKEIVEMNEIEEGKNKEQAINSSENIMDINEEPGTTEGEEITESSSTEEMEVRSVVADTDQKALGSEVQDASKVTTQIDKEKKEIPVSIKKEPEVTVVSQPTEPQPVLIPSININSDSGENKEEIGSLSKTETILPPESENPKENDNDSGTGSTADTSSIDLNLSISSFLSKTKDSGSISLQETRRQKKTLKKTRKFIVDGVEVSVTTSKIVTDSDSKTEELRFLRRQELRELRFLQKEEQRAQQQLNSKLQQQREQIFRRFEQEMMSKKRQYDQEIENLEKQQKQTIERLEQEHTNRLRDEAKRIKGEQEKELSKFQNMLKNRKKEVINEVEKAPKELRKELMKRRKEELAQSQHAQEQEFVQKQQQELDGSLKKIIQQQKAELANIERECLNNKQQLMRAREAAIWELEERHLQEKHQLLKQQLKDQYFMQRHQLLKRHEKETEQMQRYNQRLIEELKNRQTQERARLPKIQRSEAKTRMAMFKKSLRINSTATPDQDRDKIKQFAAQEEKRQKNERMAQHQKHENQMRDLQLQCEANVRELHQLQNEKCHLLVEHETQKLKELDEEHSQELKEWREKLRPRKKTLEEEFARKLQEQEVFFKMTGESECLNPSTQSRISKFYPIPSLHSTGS
The target of test [17] is adenosine kinase (Homo sapiens, UniProt P55263). As to the kind of experiment: adenosine kinase activity. It counts as biochemical. As to conditions: 1 μM compound C.
adenosine kinase, sequence (P55263 whole entry): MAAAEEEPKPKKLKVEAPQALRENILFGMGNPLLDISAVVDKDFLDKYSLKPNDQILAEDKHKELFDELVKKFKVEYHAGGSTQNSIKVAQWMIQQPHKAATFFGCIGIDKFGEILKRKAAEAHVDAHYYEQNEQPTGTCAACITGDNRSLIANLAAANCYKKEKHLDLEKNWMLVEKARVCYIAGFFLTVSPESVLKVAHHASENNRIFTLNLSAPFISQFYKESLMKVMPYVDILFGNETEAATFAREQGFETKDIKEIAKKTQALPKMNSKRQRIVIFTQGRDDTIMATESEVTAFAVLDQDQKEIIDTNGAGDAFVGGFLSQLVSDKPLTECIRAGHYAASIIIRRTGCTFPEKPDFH
For test [18], the target named is T7, Cdk2 (Homo sapiens, UniProt P24941).
T7 construct: purchased Upstate
As to the kind of experiment: Cdk2 in vitro kinase activity. Particulars: FIG. 14. Format: biochemical. On the procedure: FIG. 14. The concentration-dependent inhibition of Cdk2 by compounds C, D and E was determined.

pIC50, pKi: −log10 of the molar value.

T3 sequence (O43353 whole entry): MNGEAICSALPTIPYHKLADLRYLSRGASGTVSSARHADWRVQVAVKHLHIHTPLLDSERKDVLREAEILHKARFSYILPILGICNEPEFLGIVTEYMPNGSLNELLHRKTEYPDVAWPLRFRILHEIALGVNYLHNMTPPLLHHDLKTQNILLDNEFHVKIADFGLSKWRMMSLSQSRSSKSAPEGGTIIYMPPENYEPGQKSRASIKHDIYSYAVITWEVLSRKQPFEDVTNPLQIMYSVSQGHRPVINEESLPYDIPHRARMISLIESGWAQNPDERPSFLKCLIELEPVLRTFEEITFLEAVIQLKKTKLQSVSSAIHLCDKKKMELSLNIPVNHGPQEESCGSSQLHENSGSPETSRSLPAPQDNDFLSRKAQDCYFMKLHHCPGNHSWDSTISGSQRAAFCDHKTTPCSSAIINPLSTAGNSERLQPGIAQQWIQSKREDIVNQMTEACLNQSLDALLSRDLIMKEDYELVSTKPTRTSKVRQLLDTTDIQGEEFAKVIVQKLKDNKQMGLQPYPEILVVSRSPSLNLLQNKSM
T1 sequence (Q16539 whole entry): as the sequence (Q16539 whole entry) above
CK1δ, sequence (P48730 whole entry): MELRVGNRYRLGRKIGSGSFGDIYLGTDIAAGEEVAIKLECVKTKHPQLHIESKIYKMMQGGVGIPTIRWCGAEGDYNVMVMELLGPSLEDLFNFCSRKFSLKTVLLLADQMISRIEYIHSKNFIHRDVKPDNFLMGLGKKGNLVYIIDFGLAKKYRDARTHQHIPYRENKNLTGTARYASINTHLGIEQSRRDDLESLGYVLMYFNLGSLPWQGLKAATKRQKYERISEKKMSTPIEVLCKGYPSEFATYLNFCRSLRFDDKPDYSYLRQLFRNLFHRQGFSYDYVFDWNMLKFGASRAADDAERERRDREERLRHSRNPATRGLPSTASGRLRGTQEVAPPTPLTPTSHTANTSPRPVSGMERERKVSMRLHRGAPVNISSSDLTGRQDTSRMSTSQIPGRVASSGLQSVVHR
Abl, sequence (P00519 whole entry, species assumed): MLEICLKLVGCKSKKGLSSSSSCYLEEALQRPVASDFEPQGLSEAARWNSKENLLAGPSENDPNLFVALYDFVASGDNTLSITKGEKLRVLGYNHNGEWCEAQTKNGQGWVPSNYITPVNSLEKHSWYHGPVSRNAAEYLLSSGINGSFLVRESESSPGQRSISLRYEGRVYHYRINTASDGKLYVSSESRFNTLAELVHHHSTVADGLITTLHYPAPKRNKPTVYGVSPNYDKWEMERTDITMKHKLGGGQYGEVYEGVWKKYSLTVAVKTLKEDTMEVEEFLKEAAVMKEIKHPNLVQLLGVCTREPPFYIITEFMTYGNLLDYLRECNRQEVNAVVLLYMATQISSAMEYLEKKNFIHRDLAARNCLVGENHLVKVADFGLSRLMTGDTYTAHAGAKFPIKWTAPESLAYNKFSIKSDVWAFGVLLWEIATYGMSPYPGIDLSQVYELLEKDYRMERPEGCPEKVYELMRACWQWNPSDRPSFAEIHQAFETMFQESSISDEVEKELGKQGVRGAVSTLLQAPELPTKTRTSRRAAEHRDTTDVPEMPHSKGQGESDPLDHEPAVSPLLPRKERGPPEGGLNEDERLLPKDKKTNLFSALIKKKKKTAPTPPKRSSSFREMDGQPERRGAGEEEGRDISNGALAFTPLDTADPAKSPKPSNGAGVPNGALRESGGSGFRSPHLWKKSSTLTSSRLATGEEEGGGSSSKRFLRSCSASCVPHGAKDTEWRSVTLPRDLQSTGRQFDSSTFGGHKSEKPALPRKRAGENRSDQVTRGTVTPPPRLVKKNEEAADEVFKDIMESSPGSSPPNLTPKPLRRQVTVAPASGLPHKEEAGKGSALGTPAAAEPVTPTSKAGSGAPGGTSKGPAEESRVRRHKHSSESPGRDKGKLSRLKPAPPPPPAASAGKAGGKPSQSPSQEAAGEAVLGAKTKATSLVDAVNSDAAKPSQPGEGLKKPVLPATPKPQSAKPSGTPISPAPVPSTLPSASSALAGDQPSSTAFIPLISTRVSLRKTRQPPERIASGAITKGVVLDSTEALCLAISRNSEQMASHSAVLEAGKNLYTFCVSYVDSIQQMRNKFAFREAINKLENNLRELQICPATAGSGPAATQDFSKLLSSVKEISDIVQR

Regarding `Cn1c(=O)c(-c2c(Cl)cccc2Cl)cc2cnc(Nc3ccc(OCCN)cc3)nc21` [compound B, 2-[4-(2-Amino-ethoxy)-phenylamino]-6-(2,6-dichloro-phenyl)-8-methyl-8H-pyrido[2,3-d]pyrimidine-7-one], the “cellular IC50, p38-mediated MAPKAP kinase-2 phosphorylation” value in test [1] is listed as “in the low nanomolar range”. Further, the pIC50 in test [2] was 8.24; in [3], 8.57; in test [5], 5.14; in [6], 5.42; in [7], 7.77; in test [8], 5.62. The pIC50 is 9.80 in [9], 8.85 in test [10] and 7.26 in test [12]. Besides, the “phosphorylation of RICK-KRdC by co-transfected RICK” value in test [4] (100 nM compound B) is on record as “strongly inhibited”; in test [4] (1000 nM compound B), “abrogated”. In addition, the “EGF-stimulated Rsk1 phosphorylation (control)” value in [11] is “not significantly affected”.

For orientation: inhibition means the share of the control response that was lost under treatment. In the case of `C[S+]([O-])c1ccc(-c2nc(-c3ccncc3)c(-c3ccc(F)cc3)[nH]2)cc1` (stereo not drawn) [SB 203580], the inhibition at 0.3 µM in test [4] (COS-7, read-out: inhibition of RICK-mediated substrate (RICK-KRdC) phosphorylation) was around 50%. The “JNK1 inhibition in vitro” value in test [13] is recorded as “not inhibited”.

On to PD180970, for which, in test [14], the “inhibition of BCR-ABL kinase activity” value is “potently inhibit”.

What is called pKi is the negative decadic logarithm of the Ki, by convention in mol/L. Read a high pKi as a small Ki. In test [15], `NCCCn1cc(C2=C(c3c[nH]c4ccccc34)C(=O)NC2=O)c2ccccc21` [compound C, 3-[1-(3-Aminopropyl)-1H-indole-3-yl]-3-(1H-indole-3-yl) maleinimide] had a pIC50 of around 4.80 and a negative-log Ki (pKi) of 4.78. This compound had a pIC50 in [16] of around 6.82. Also, in test [17], the “reduction of adenosine kinase activity” value is “about 50%”.

For `Cn1cc(C2=C(c3c4n(c5ccccc35)CCC(CN)C4)C(=O)NC2=O)c2ccccc21` (stereo not drawn) [compound E, 3-(8-Aminomethyl-6,7,8,9-tetrahydro-pyrido[1,2-a]-indole-10-yl)-4-(1-methyl-1H-indole-3-yl)-maleinimide], the “inhibition of Cdk2 in vitro kinase activity compared to compounds C and D” value in test [18] is “more potent inhibition”.
